The text below walks through data of patent US9228089B2, “Polyester polyamine and polyester polyquaternary ammonium corrosion inhibitors” (AKZO NOBEL CHEMICALS INTERNATIONAL B.V., priority 2010, dated 2016).

The conditions of test [1]: example 6 of PCT/EP2010/059325, cited from earlier work.
The nature of test [2]: bubble test, corrosion rate monitored by linear polarization resistance (LPR) in CO2-saturated synthetic Forties brine. Conditions: 80 ppm active inhibitor, 54° C. On the procedure:
The tests were carried out using the well-known “bubble test” method, see for instance the discussion in NACE International, Vol. 46, No. 5, pp 46-51 (May 2007), where corrosion rate is monitored by linear polarization resistance (LPR). First a baseline corrosion rate in the medium is established, and then corrosion rates with different amounts of inhibitor added are measured.
The detailed conditions for the tests were as follows: • Temperature 54° C. • CO2 CO2 Saturated at ambient pressure (˜0.9 bara partial pressure) • Liquids 100% Typical “Forties” (North Sea water) synthetic brine as shown below: • Chloride=42539 mg/l • Sulphate=0 mg/l • Barium=173 mg/l • Calcium=1979 mg/l • Strontium=351 mg/l • Magnesium=377 mg/l • Sodium=24973 mg/l • Potassium=341 mg/l • Bicarbonate=200 mg/l • Electrode Fabricated from AISI 1018 (UNS G10180), polished to 600 grit finish, degreased rinsed and dried • Inhibitor Concentration 4 hour precorrosion without inhibitor, then dose with 10 ppm of inhibitor and evaluate corrosion rate for at least 8 h, then add inhibitor so that the next level of total inhibitor dosage is reached according to Table 1. After each addition the corrosion rate is measured for at least 8 h. • Gas and partial pressure Ambient pressure test. […]

On to “C12-C16 Cocoalkyl di-methyl benzyl quaternary amine”, for which, in test [1] (20 ppm), the “% protection at 20 ppm” value is given as −28%. In test [1] (50 ppm), the “% protection at 50 ppm” value is 38%. Besides, the “% Protection at 80 ppm” value in test [2] came to 89.6%.
